Test results: US20090137662A1, “SYNERGY OF DOPAMINE D2 AND ADENOSINE A2 RECEPTORS ACTIVATES PKA SIGNALING VIA BETA/GAMMA DIMERS” (The Regents of the University of California, priority 2002, published 2009)
Counter-ions that a name gives are not always drawn. Like-named read-outs stand apart in the source and are kept apart here.

What was measured:
ε-PKC [1] = experiment: Translocation of ε-PKC in NG108-15 and CHO cells expressing the applicable receptor; format: cell-based
From the text: (§1) To determine whether addictive drugs other than ethanol would cause translocation of some proteins, we examine the effects of various receptor agonists and antagonists on ε-PKC δ-PKC or PKA Cα translocation in NG108-15 and CHO cells expressing the applicable receptor. […] Adenosine is also implicated in some behavioral effects of ethanol.
(§2) The mechanisms underlying ethanol- and dopamine-mediated translocation of ε-PKC and δ-PKC were studied by altering the activity of various molecules that might be in the pathways leading to translocation.

ε-PKC [2] = format: cell-based
Method: NG 108-15 or CHO cells were pre-incubated in the presence or absence of the indicated inhibitor for 30 min. (except for GF which was pre-incubated for 1 hour), then further incubated in the absence or presence of 200 mM ethanol for 30 min.

[3] = test system: CRE-regulated luciferase expression; experiment: CRE-luciferase reporter in NG108-15 cells; format: cell-based
Method: Luciferase is used as a reporter gene in a transient expression system to identify substances that alter the effects of ethanol on CRE-regulated gene expression. Cells are cultured as described in Dohrman et al., Proc Natl Acad Sci USA (1996) 93:10217-10221, and are transfected using Effectene (Qiagene) as described by the manufacturers. Twenty-four hours after transfection the cells are treated with 200 mM ethanol for 30 min. to 36 hr. Luciferase activity is measured using Luciferase Assay System (Promega) and normalized to β-galactosidase activity.
(§3) NG108-15 cells were co-transfected with a fusion construct containing the cAMP response element (CRE) fused to luciferase as a reporter gene (Stratagene).
Since the ERK/MAPK pathway may regulate CREB phosphorylation and CRE-mediated gene expression, NG108-15 cells having the luciferase construct were co-incubated with 200 mM ethanol and a MEK inhibitor (PD98059 (2 nM, Calbiochem, San Diego, Calif.) or U0126 (1 μM, Calbiochem, San Diego, Calif.)) or a dominant negative MEK construct (DN-MEK, Dr. R. Seger) in which Lys-97 was replaced by alanine.
as §3

[4] = test system: CREB (GAL4-CREB fusion, luciferase reporter); experiment: GAL4-CREB / GAL4-luciferase reporter in NG108-15 cells; format: cell-based; details: 20 μM Rp-cAMPS 2 h, 5 μM KN-62 or 50 nM GF 30 min pretreatment, then ethanol 14 hours
Method: Cells are cultured as described in Dohrman et al., Proc Natl Acad Sci USA (1996) 93:10217-10221, and are transfected using Effectene (Qiagene) as described by the manufacturers. […] Luciferase activity is measured using Luciferase Assay System (Promega) and normalized to β-galactosidase activity.
NG108-15 cells are co-transfected with a GAL4-CREB fusion construct and with a second construct containing the DNA binding site of GAL4 fused to luciferase as a reporter gene. […] The ethanol-induced increase in luciferase activity induced was inhibited by Rp-cAMPS but not by the CaMK and PKC inhibitors KN-62 and GF, respectively (FIGS. 15 and 16B).

[5] = test system: CRE-mediated gene expression; experiment: CRE-luciferase reporter assay in NG108-15/D2 cells; details: NG108-15/D2 cells; spiperone, Rp-cAMPS or PTX alone
Method: Cells were transiently transfected with a CRE-luciferase reporter construct to measure gene expression via endogenous CRE-binding protein (CREB).
NG108-15/D2 cells were plated at 1×10^6 cells/100 mm plate, grown in defined medium for 3 days, and then transfected with 10 μg of CRE-luciferase construct using the LipofectAMINE reagent (GIBCOL) as recommended by the manufacturer. Cells were cultured for 24 h post transfection before being seeded into 12-well plates. […] Cells were then washed with PBS and cultured for a total of 5 h. Cell extracts were prepared and luciferase activity measured with a luciferase assay system (Promega, Madison, Wis.), using a Rosys Anthos Lucy2 microplate luminometer (Anthos Labtec Instruments, Austria). Results are expressed as percent increase over control. Data represent three or more separate experiments from triplet wells. Luciferase activities were normalized for transfection efficiency determined in cells transfected in parallel with pCMVβgalactosidase. β-galactosidase activity was measured using a kit from Strategene (La Jolla, Calif.).

PKA Cα [6] = experiment: PKA Cα translocation in primary cultures of hippocampal neurons; details: for effect of agent alone on PKA Cα localization: data not shown
δ-PKC [7] = experiment: Translocation of δ-PKC in NG108-15 and CHO cells expressing the applicable receptor; format: cell-based
From the text: as §1, §2

ε-PKC [8] = format: cell-based; details: naive NG108-15 cells; 100 nM PMA, 10 min.
Method: (§4) Naive NG108-15 cells were, therefore, incubated in for ten (10) min. in 100 nM PMA, to then determine localization of δ-PKC and ε-PKC.

δ-PKC [9] = format: cell-based; details: naive NG108-15 cells; 100 nM PMA, 10 min.
Method: as §4

PKA Cα [10] = format: cell-based; details: for translocation of PKA-Cα after co-incubation with NPA: 10 minute co-incubation with 10^−10M NPA, 10^−11M DADLE or 2×10^−10M methanindamide
From the text: as §1

[11] = test system: PKA subunits (RIα, RIIα, RIβ, Cα, Cβ, Cγ); experiment: Immunocytochemical localization of PKA subunits in neutrophils; format: cell-based, human
From the text: Methods 5:249-252 (1974). […] This step removed contaminating platelets from the lymphocyte fraction. […] Images were further analyzed using NIH Image.

[12] = NG108-15 cells expressing the applicable receptor, 200 mM Ethanol, 50 nM NPA, 1 μM D-ala-D-leu-enkephalin, 2 μM R(+) methanindamide, 20 μM Carbachol, 10^−5 M UK14304, 20 nM CCPA, 100 nM CGS-21680 HCl, None: Perinucleus
[13] = NG108-15 cells, H-89 10 μM, PD98059 2 nM, U0126 1 μM, DN-RIα, DN-MEK, CREB-M1 constructs co-transfected
[14] = primary hippocampal neurons, 50 nM NPA, spiperone 10 μM, DPCPX 100 nM, DMPX 10 μM 30 min, Rp-cAMPS 20 μM 1.5 hours, PTX 50 ng/ml or Ad5QEHA overnight
[15] = CHO cells expressing the dopamine D2 receptor
[16] = NG108-15 cells expressing the dopamine D2 receptor
[17] = PKA agonist Sp-cAMPS, or forskolin or PGE1 to increase cAMP levels
[18] = 10 μM spiperone or 10 μM BW 1434 + 200 mM ethanol

## OC[C@H]1O[C@@H](n2cnc3c(NC4CCCC4)nc(Cl)nc32)[C@H](O)[C@@H]1O [CCPA, 2-chloro-N^6-cyclopentyladenosine]
ε-PKC [1]; [12]
  Predominant Localization of ε-PKC (agent alone): Cytoplasm

## CN(C)CCCn1cc(C2=C(c3c[nH]c4ccccc34)C(=O)NC2=O)c2ccccc21 [GF, Bisindoylmaleimide I]
ε-PKC [2]
  Predominant ε-PKC Localization (ethanol + inhibitor): Perinucleus

## C[N+](C)(C)CCOC(N)=O [Carbachol]
ε-PKC [1]; [12]
  Predominant Localization of ε-PKC (agent alone): Perinucleus

## COc1cccc(-c2cc(=O)c3ccccc3o2)c1N [PD98059]
[3]; [13]
  effect on the increase in luciferase expression after 14 hours of exposure to 200 mM ethanol: eliminated the increase in luciferase activity

## Nc1ncnc2c1ncn2[C@@H]1O[C@@H]2CO[P@@](O)(=S)O[C@H]2[C@H]1O [Rp-cAMPS]
[4]
  effect on the ethanol-induced increase in luciferase activity (GAL4-CREB / GAL4-luciferase): inhibited
ε-PKC [2]
  Predominant ε-PKC Localization (ethanol + inhibitor): Perinucleus
ε-PKC [1]
  effect on NPA-induced translocation of ε-PKC: blocked
  effect on ethanol-induced translocation of ε-PKC: blocked
[5]
  effect of agent alone on luciferase activity / gene expression: without effect
PKA Cα [6]; [14]
  effect on NPA-induced PKA Cα translocation: prevent
PKA Cα [6]; primary hippocampal neurons
  effect of agent alone on PKA Cα localization: no effect
[3]; NG108-15 cells, 200 mM ethanol co-incubated with Rp-cAMPS 20 μM
  effect on early (4 h) and late (14 h) phases of ethanol-induced increases in luciferase expression: completely inhibited both the early and late phases
δ-PKC [7]
  effect on NPA-induced translocation of δ-PKC: did not affect
  effect on ethanol-induced translocation of δ-PKC: did not affect

## CCCCCCCCCCCCCCCCCCOCC(COP(=O)([O-])OCC[N+](C)(C)C)OC (centres unmarked) [Et-18-OCH3]
ε-PKC [2]
  Predominant ε-PKC Localization (ethanol + inhibitor): Perinucleus
ε-PKC [1]; [15]
  inhibition of ethanol-induced translocation of ε-PKC: 87%
ε-PKC [1]; [16]
  inhibition of ethanol-induced translocation of ε-PKC: 96%

## CCCCCCCCCCCCCC(=O)O[C@@H]1[C@@H](C)[C@@]2(O)[C@@H](C=C(CO)C[C@]3(O)C(=O)C(C)=C[C@@H]23)[C@@H]2C(C)(C)[C@]12OC(C)=O [PMA, phorbol myristate acetate]
ε-PKC [8]
  localization of ε-PKC on activation by PMA: nuclear and perinuclear localization
δ-PKC [9]
  localization of δ-PKC on activation by PMA: mainly translocated to the perinucleus

## CCNC(=O)[C@H]1O[C@@H](n2cnc3c(N)nc(NCCc4ccc(CCC(=O)O)cc4)nc32)[C@H](O)[C@@H]1O [CGS-21680 HCl]
ε-PKC [1]; [12]
  Predominant Localization of ε-PKC (agent alone): Cytoplasm

## Brc1c(NC2=NCCN2)ccc2nccnc12 [UK14304]
ε-PKC [1]; [12]
  Predominant Localization of ε-PKC (agent alone): Perinucleus

## Cl.c1ccc([C@@H]2CCC[C@@H]2NC2=NCCCCCCCCCCC2)cc1 [MDL 12, 330A Hydrochloride]
ε-PKC [2]
  Predominant ε-PKC Localization (ethanol + inhibitor): Perinucleus

## COc1ccc2c(c1)CC[C@@H]1[C@@H]2CC[C@]2(C)[C@@H](NCCCCCCN3C(=O)C=CC3=O)CC[C@@H]12 [U 73122]
ε-PKC [2]
  Predominant ε-PKC Localization (ethanol + inhibitor): Perinucleus
ε-PKC [1]; [15]
  inhibition of ethanol-induced translocation of ε-PKC: 87%
ε-PKC [1]; [16]
  inhibition of ethanol-induced translocation of ε-PKC: 84%

## CC(C)C[C@@H](NC(=O)[C@H](Cc1ccccc1)NC(=O)CNC(=O)[C@@H](C)NC(=O)[C@@H](N)Cc1ccc(O)cc1)C(=O)O [DADLE, enkephalin (D-ala2,D-leu5)]
ε-PKC [1]
  Predominant Localization of ε-PKC (agent alone): Cytoplasm
[3]; NG108-15 cells, 10 nM DADLE, four hours
  increase in luciferase expression: 40%
PKA Cα [10]
  translocation of PKA-Cα after co-incubation with ethanol: Synergistic translocation
  translocation of PKA-Cα after co-incubation with NPA: Synergistic translocation
PKA Cα [10]; 10 minute coincubation of 10^−11M DADLE and 2×10^−10M methanindamide
  translocation of PKA-Cα after co-incubation of δ-opioid and cannabinoid: did not result in synergistic translocation

## N#CC(=C(/N)Sc1ccccc1N)/C(C#N)=C(\N)Sc1ccccc1N [U0126]
[3]
  effect on the increase in luciferase expression after 14 hours of exposure to 200 mM ethanol: eliminated the increase in luciferase activity

## Nc1ncnc2c1ncn2[C@@H]1O[C@@H]2COP(O)(=S)O[C@H]2[C@H]1O (some centres unmarked) [Sp-cAMPS]
ε-PKC [1]; [17]
  translocation of ε PKC on activation of PKA: translocate to the cytoplasm
δ-PKC [7]; [17]
  translocation of δ PKC on activation of PKA: did not induce translocation

## CCCn1c(=O)c2[nH]c(C3CCCC3)nc2n(CCC)c1=O [DPCPX]
PKA Cα [6]
  effect on NPA-induced PKA Cα translocation: do not affect
  effect on ethanol-induced PKA Cα translocation: prevents
PKA Cα [6]; primary hippocampal neurons
  effect of agent alone on PKA Cα localization: no effect

## C#CCn1c(=O)c2c(ncn2C)n(C)c1=O [DMPX]
PKA Cα [6]; [14]
  effect on NPA-induced PKA Cα translocation: do not affect
PKA Cα [6]; primary hippocampal neurons
  effect of agent alone on PKA Cα localization: no effect

## O=S(=O)(NCCNC/C=C/c1ccc(Br)cc1)c1cccc2cnccc12 [H-89]
[3]; [13]
  effect on the increase in luciferase expression after 14 hours of exposure to 200 mM ethanol: inhibit the increase in luciferase expression

## CCCCC/C=C\C/C=C\C/C=C\C/C=C\CCCC(=O)N[C@H](C)CO [R(+) methanindamide]
ε-PKC [1]
  Predominant Localization of ε-PKC (agent alone): Cytoplasm
PKA Cα [10]
  translocation of PKA-Cα after co-incubation with ethanol: Synergistic translocation
  translocation of PKA-Cα after co-incubation with NPA: Synergistic translocation

## O=C(CCCN1CCC2(CC1)C(=O)NCN2c1ccccc1)c1ccc(F)cc1 [spiperone]
ε-PKC [1]
  effect on NPA-induced translocation of ε-PKC: blocked
  effect on ethanol-induced translocation of ε-PKC: no effect
ε-PKC [1]; 10 μM spiperone + 50 nM NPA
  Predominant Localization of ε-PKC (antagonist + NPA): Perinucleus
ε-PKC [1]; [18]
  Predominant Localization of ε-PKC (antagonist + ethanol): Cytoplasm
[5]
  effect of agent alone on luciferase activity / gene expression: without effect
PKA Cα [6]; [14]
  effect on NPA-induced PKA Cα translocation: blocks
PKA Cα [6]; primary hippocampal neurons
  effect of agent alone on PKA Cα localization: no effect
PKA Cα [10]
  effect on NPA-induced translocation of PKA Cα: blocked
  effect on ethanol-induced translocation of PKA Cα: no effect
PKA Cα [10]; 10 μM spiperone + 50 nM NPA
  Predominant Localization of PKA Cα (antagonist + NPA): Golgi
PKA Cα [10]; 10 μM spiperone + 200 mM ethanol
  Predominant Localization of PKA Cα (antagonist + ethanol): Nucleus &
δ-PKC [7]
  effect on NPA-induced translocation of δ-PKC: blocked
  effect on ethanol-induced translocation of δ-PKC: no effect
δ-PKC [7]; 10 μM spiperone + 50 nM NPA
  Predominant Localization of δ-PKC (antagonist + NPA): Golgi
δ-PKC [7]; [18]
  Predominant Localization of δ-PKC (antagonist + ethanol): Perinucleus &

## C=C[C@@]1(C)CC(=O)[C@]2(O)[C@@]3(C)[C@@H](O)CCC(C)(C)[C@@H]3[C@H](O)[C@H](OC(C)=O)[C@@]2(C)O1 [forskolin]
[11]; neutrophils from non-alcoholics, 200 mM ethanol or 100 nM forskolin
  effect on localization of the catalytic subunits of PKA (Cα, Cβ, Cγ): no effect
[11]; neutrophils, ethanol or forskolin
  effect on the localization of RIIα: no effect
